Experimental data reported in US20070117770A1, “Human ribosomal DNA (rDNA) and ribosomal RNA (rRNA) nucleic acids and uses thereof” (Cylene Pharmaceuticals, Inc., priority 2005, published 2007).
*1 amine or outer side, *2 acyl side, *3 side chain or, on linkers, in order; H or OH if unused. Where a SMILES comes first, the peptide text is derived from it. Bridges are numbered along the chain shown (N, C = ends). Roman numbers before positions name the chains, in order. [ ]: non-standard residue; d: D form. Actinocin(9to1) = Cc1c2oc3c(C)ccc(C(=O)[*:1])c3nc-2c(C(=O)[*:2])c(N)c1=O; NMeV = CN[C@H](C(=O)O)C(C)C; Sar = CNCC(=O)O

Legend:
[1] = test system: 28S and 18S rRNA (total RNA from HCT116 cells); assay: Competition for rRNA binding with compound A-1 (agarose gel electrophoresis); parameters: species or system human; conditions: 10 uM compound A-1; increasing amount of competitor (Actinomycin D 10, 100, 200 uM; pUC18 0.25-4 ug)
Method: Compounds that bound to the 28S rRNA were subjected to competition for rRNA binding with Actinomycin D, Se2SAP (FIG. 3A of US20040110820 published on Jun. 10, 2004) and double-stranded DNA (dsDNA) in confirmatory studies. In such assays, 1 ug of total RNA from HCT116 cells was incubated with 10 uM compound A-1 in a volume of 10 uL in the absence/ presence of (a) increasing amount of Actinomycin D (10, 100 and 200 uM) for 15 min at room temperature, (b) increasing amount of Se2SAP (see figure) for 30 min at room temperature, or (c) increasing amount of pUC18 (0.25, 0.5, 1, 2 and 4 ug) for 30 min at room temperature, followed by agarose gel electrophoresis.

[2] = target: T1, nucleolin/nucleic acid ligand (Homo sapiens, UniProt P19338); assay: EMSA, interference with nucleolin/nucleic acid ligand interactions (ligands derived from human ribosomal DNA); assay type: binding
T1 construct: without the N-terminal acidic stretches domain
T1 sequence (P19338 284-710 limits assumed): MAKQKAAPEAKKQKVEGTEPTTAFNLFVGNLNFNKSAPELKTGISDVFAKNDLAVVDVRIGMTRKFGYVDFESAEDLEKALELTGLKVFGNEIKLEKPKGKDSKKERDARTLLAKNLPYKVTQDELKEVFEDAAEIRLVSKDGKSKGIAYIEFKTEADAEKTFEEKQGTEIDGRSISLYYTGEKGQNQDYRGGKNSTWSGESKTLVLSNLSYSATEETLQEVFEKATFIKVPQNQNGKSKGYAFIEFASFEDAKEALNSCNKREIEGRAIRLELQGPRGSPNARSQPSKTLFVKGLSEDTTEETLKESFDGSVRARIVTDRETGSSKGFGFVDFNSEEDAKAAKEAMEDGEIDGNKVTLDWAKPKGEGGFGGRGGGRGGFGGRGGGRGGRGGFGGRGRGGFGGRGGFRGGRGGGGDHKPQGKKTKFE
Method: (§1) The following assays assessed effects of compounds on interactions between nucleolin and nucleic acid ligands capable of forming quadruplex (QP) and hairpin (HP) secondary structures. Nucleic acid ligands tested were a cMyc QP DNA having nucleotide sequence 5′-[…]-3′ (SEQ ID NO: 176) and a HP pre-rRNA region to which nucleolin binds, having the sequence 5′-[…]-3′ (SEQ ID NO: 177). In the assays, recombinant nucleolin (˜250 nM), which was fused to maltose binding protein and had the sequence under accession number NM_005381 without the N-terminal acidic stretches domain, was incubated with each of the two ^32P-labeled nucleic acid ligands (10 or 250 nM). Nucleolin and the nucleic acid ligand were incubated in the presence or absence of a test compound of Formula A-1, B-1, C-6 or C-7 in an incubation buffer (12.5 mM Tris, pH 7.6, 60 mM KCl, 1 mM MgCl2, 0.1 mM EDTA, 1 mM DTT, 5% glycerol, 0.1 mg/ml BSA) for 30 minutes at room temperature. Structures for A-1 and B-1 are shown above and structures for C-6 and C-7 are shown hereafter: [drawing 17] The resulting complexes were separated on a 6% DNA retardation gel using 0.5× TBE with 20 mM KCl as a running buffer (i.e., electrophoresis mobility shift assay (EMSA)).
The assay also was conducted using nucleic acid ligands derived from human ribosomal DNA. Sequences of these nucleic acids are shown in the preceding example. […]

[3] = target: T2, nucleolin/cMyc QP DNA (Homo sapiens, UniProt P19338); assay: EMSA, nucleolin/QP ligand interaction; assay type: binding; conditions: nucleolin ~250 nM, 32P-labeled ligand 10 or 250 nM, 30 minutes (FIG. 1, FIG. 2)
T2 construct: without the N-terminal acidic stretches domain
T2 sequence (P19338 284-710 limits assumed): as above
Method: as §1

[4] = target: T3, nucleolin/HP pre-rRNA region (Homo sapiens, UniProt P19338); assay: EMSA, nucleolin/HP ligand interaction; assay type: binding; conditions: nucleolin ~250 nM, 32P-labeled ligand 10 or 250 nM, 30 minutes (FIG. 1, FIG. 2)
T3 construct: without the N-terminal acidic stretches domain
T3 sequence (P19338 284-710 limits assumed): as above
Method: as §1

[5] = target: T4, nucleolin (Homo sapiens, UniProt P19338); assay: EMSA, relative affinity of nucleic acid ligands for nucleolin; assay type: binding; parameters: key: +: weakest nucleolin affinity; ++++: strongest nucleolin affinity
T4 construct: without the N-terminal acidic stretches domain
T4 sequence (P19338 284-710 limits assumed): as above
Method: as §1
The assay also was conducted using nucleic acid ligands derived from human ribosomal DNA. Sequences of these nucleic acids are shown in the preceding example. […] A “+” represents the weakest nucleolin affinity and least interference by compound A-1 and a “++++” represents the strongest nucleolin affinity and greatest interference by compound A-1.

[6] = target: T4, nucleolin; assay: Filter-binding assay of 32P-labeled quadruplexes and Nucleolin; conditions: for Kd: 0.2 nM 32P-labeled quadruplex, read-out: Kd, apparent dissociation constant of nucleolin protein and the nucleic acid ligand
Method: The assay also was conducted in a filter-binding format. […] The protein-quadruplex mixtures were incubated for 30 min at ambient temperature and filtered through mixed cellulose ester membrane filters (Millipore) with gentle suction. The filters were washed twice with […] of binding buffer, dried and OptiPhase ‘SuperMix’ scintillation cocktail (Perkin Elmer) was added to the wells. Radioactivity was assayed with MicroBeta scintillation counter (Perkin Elmer). Binding curves were constructed and apparent Kd's and Bmax's for the complexes were calculated using the GraphPad Prizm software program (GraphPad Software). In the following table, the nucleic acid ligand is designated in the first column using the nomenclature described herein; the second column provides the nucleotide sequence of the nucleic acid ligand; the third column is the conformation of the ligand as determined by circular dichroism (M is mixed, P is parallel, A is antiparallel, C is complex, SS is single-stranded and ND is not determined); the fourth column is the dissociation constant determined by the filter binding assay of nucleolin protein and the nucleic acid ligand; the fifth column is a Bmax constant determined by the filter binding assay, which is the percent of active nucleic acid ligand in each assay; and the sixth column presents the concentration of Compound A-1 required to dissociate half of the complexed nucleic acid ligand and nucleolin protein, as determined by the EMSA assay described above.

Compound | competition with compound A-1 for rRNA binding [1] | interference with nucleolin/nucleic acid ligand interactions [2] | interference with the nucleolin/QP ligand interaction [3] | interference with the nucleolin/HP ligand interaction [4] | Affinity for Nucleolin (relative) [5] | Bmax, percent of active nucleic acid ligand [6] [%] | Kd [6] [nM]
Cc1c2oc3c(C)ccc(C(=O)N[C@@H]4C(=O)N[C@H](C(C)C)C(=O)N5CCC[C@H]5C(=O)N(C)CC(=O)N(C)[C@@H](C(C)C)C(=O)O[C@@H]4C)c3nc-2c(C(=O)N[C@@H]2C(=O)N[C@H](C(C)C)C(=O)N3CCC[C@H]3C(=O)N(C)CC(=O)N(C)[C@@H](C(C)C)C(=O)O[C@@H]2C)c(N)c1=O [Actinomycin D, reference compound] (I: T[dV]P[Sar][NMeV] / II: T[dV]P[Sar][NMeV]; ester I:1-I:C, II:1-II:C; linker I:N-II:N via Actinocin(9to1)) | failed to compete with compound A-1 for rRNA | but not Actinomycin D, interfered with nucleolin/nucleic acid ligand interactions | – | – | – | – | –
CC(=O)N1CCN(c2c(F)cc3c(=O)c(C(=O)NCCN4CCCC4)cn4c3c2Oc2cc(Cl)ccc2-4)CC1 [Compound C-6] | – | – | interfered with the nucleolin/QP ligand interaction | did not significantly interfere with the nucleolin/HP ligand interaction | – | – | –
CC(=O)N1CCN(c2c(F)cc3c(=O)c(C(=O)NCCC4CCCN4C)cn4c3c2Oc2cc3ccccc3cc2-4)CC1 (stereo not drawn) [Compound C-7] | – | – | interfered with the nucleolin/QP ligand interaction | did not significantly interfere with the nucleolin/HP ligand interaction | – | – | –
GGGAGGGCGCGCGGGTCGGGG (listed as DNA, chemistry not given here; listed as Homo sapiens) [Compound 8749NT] | – | – | – | – | + | 13 | 1.9
GGGAGGGGCACGGGCCGGGGGCGGGACGGG (listed as DNA, chemistry not given here; listed as Homo sapiens) [Compound 7733T] | – | – | – | – | + | 53 | 0.8
GGGGCGCGGCGGGGGGAGAAGGGTCGGGGCGGCAGGGG (listed as DNA, chemistry not given here; listed as Homo sapiens) [Compound 11028NT] | – | – | – | – | + | 32 | 2.7
GGGGGCGGGCTCCGGCGGGTGCGGGGGTGGGCGGGCGGGGCCGGGGGTGGGGTCGGCGGGGG [Compound 8511NT] | – | – | – | – | ++++ | 100 | 0.6
GGGTCGGGGGCGGTGGTGGGCCCGCGGGGG (listed as DNA, chemistry not given here; listed as Homo sapiens) [Compound 6183NT] | – | – | – | – | + | 26 | 2.2
